The assay deals with T1, TrkB-wt (Mus musculus, UniProt P15209).
T1 construct: gene Ntrk2; full-length receptor with kinase domain, pcDNA3, transiently overexpressed in HEK293; 130 kDa mature and 90 kDa underglycosylated
Description: Western blot and immunofluorescence of pTrk-kin, transfected HEK293. To be noted: no neurotrophin, constitutive kinase activity; concentrations only in figure. The class given is cell-based. A general note: Immunoblotting shows a protein as a band on a membrane.

T1 sequence (P15209 32-821): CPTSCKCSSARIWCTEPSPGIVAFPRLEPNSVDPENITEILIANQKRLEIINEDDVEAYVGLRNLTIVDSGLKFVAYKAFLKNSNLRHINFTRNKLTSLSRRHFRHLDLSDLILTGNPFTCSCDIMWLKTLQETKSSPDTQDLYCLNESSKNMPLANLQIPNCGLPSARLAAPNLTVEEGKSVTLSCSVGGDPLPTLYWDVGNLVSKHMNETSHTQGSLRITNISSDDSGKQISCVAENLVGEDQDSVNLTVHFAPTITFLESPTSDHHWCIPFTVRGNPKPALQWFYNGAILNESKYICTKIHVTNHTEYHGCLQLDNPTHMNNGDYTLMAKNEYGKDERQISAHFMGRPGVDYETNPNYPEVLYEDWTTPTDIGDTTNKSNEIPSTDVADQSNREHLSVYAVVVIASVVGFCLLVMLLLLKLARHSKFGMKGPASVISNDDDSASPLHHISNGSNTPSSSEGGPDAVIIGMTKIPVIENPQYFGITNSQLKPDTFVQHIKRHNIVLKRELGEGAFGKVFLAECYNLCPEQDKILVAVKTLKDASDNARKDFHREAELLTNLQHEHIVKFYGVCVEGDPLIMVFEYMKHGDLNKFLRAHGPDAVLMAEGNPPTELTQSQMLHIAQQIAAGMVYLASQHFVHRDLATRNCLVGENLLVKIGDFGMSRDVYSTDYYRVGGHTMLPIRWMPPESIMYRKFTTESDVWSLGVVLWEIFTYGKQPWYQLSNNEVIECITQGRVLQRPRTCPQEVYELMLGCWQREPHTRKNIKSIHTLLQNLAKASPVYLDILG

For `CN1CCN(c2ccc(C(=O)Nc3n[nH]c4ccc(Cc5cc(F)cc(F)c5)cc34)c(NC3CCOCC3)c2)CC1` [Entrectinib], the “Western blot and immunofluorescence of pTrk-kin, transfected HEK293” value is reported as “TrkB self-activity is reduced upon inhibitor treatment”.
With `O=C(Nc1cnn2ccc(N3CCC[C@@H]3c3cc(F)ccc3F)nc12)N1CC[C@H](O)C1` [LOXO-101] the entry was “TrkB self-activity is reduced upon inhibitor treatment”.

These data come from PMC11405271, “Atypical cellular responses mediated by intracellular constitutive active TrkB (NTRK2) kinase domains and a solely intracellular NTRK2-fusion oncogene” (Cancer Gene Therapy, 2024).
